The subject of assay [1] is SB.mhdgc-1. The experiment in a line: viability at highest tested concentration (MAXR) relative to DMSO; higher = less cytotoxic. The following applies: SB.mhdgc-1 (hereditary c.1380delA CDH1 gastric cancer). An outline of the steps:
(§1)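 Using a pintool, 23 nL of compound in DMSO was transferred at 11 threefold-diluted concentrations onto patient-derived gastric cancer cells, hereditary or sporadic, plated at 500 cells in 5 μL medium per 1536 well. CellTiter-Glo luminescence was read after 48 h. Each value is viability normalised to DMSO, either at the highest concentration or as trapezoidal area under the curve.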

In assay [2] the test system is SB.msgc-1. The description is as above. Particulars: SB.msgc-1 (sporadic gastric cancer). An outline of the steps: as §1
Assay [3] has as its system SB.mhdgc-1. Kind of assay: area under the dose-response curve of % viability (trapezoidal, 11 doses) (% viability x log10 concentration); higher = less cytotoxic. Particulars: SB.mhdgc-1 (hereditary c.1380delA CDH1 gastric cancer). The method, boiled down:
as §1

Assay [4] concerns SB.msgc-1. The description is as above. Particulars: SB.msgc-1 (sporadic gastric cancer). The method, boiled down: as §1

The source of these data is the supplement of paper PMC5412046.

Each structure is given as a SMILES string. Counter-ions that a name gives are not always drawn.

By viability is commonly meant a read-out of living cells in per cent, often relative to untreated cells. Turning to `CN[C@@H](C)C(=O)N[C@H]1CCCC[C@H]2CC[C@@H](C(=O)N[C@@H](c3ccccc3)c3cn(CCCCc4ccc(CCCCn5cc([C@@H](NC(=O)[C@@H]6CC[C@@H]7CCCC[C@H](NC(=O)[C@H](C)NC)C(=O)N76)c6ccccc6)nn5)cc4)nn3)N2C1=O` [SM-164] (top concentration 46.0829 µM), the viability in the assay with SB.mhdgc-1 [1] came to 2.4%; in the assay with SB.msgc-1 [2] it was 49.1%. In addition, the “area under the dose-response curve” value was 283 with SB.mhdgc-1 [3] and 449 in the assay on SB.msgc-1 [4].
In the same order, the values of `N[C@@H]1CONC1=O` [D-Cycloserine] (top concentration 46.0829 µM) are 103%, 98.9%, 584 and 509.
On the same counts, the results for `CN1CCN(CCCN2c3ccccc3Sc3ccc(Cl)cc32)CC1.O=C(O)/C=C\C(=O)O.O=C(O)/C=C\C(=O)O` [Prochlorperazine] (top concentration 46.0829 µM) are 4.18%, 37%, 438 and 496.
On the same counts, the results for `NC(=O)c1cccc(N)c1` (top concentration 46.0829 µM) are 82.3%, 79.2%, 494 and 485.
As to `COc1cc2ncn(-c3cc(OCc4ccccc4[S+](C)(=O)[O-])c(C#N)s3)c2cc1OC` [IKK-3 Inhibitor IX] (top concentration 46.0829 µM), the results for the viability in the assay on SB.mhdgc-1 [1] and with SB.msgc-1 [2] were 52.9% and 93.1%, respectively. In addition, the “area under the dose-response curve” value came out at 448 with SB.mhdgc-1 [3] and 510 with SB.msgc-1 [4].
On the same counts, the results for `Cc1c(O)cccc1C(=O)N[C@@H](CSc1ccccc1)[C@H](O)CN1C[C@H]2CCCC[C@H]2C[C@H]1C(=O)NC(C)(C)C` [Viracept] (top concentration 46.0829 µM) are 3.25%, 20%, 431 and 486.
In the same order, the values of `CCC1(c2ccccc2)C(=O)NCNC1=O` [Primidone] (top concentration 46.0829 µM) are 3.13%, 6.59%, 350 and 484.
For the compound `c1ccc2c(CN3CCNCC3)cccc2c1` [NMP] (top concentration 46.0829 µM), the viability in the assay with SB.mhdgc-1 [1] is 7.38%; in the assay with SB.msgc-1 [2] it was 89.5%. In addition, the “area under the dose-response curve” value is 520 in the assay on SB.mhdgc-1 [3] and 491 in the assay with SB.msgc-1 [4].
In the same order, the values of `N#Cc1ccc(Oc2ccc3c(c2)COB3O)cc1` [AN2728] (top concentration 46.0829 µM) are 59.1%, 74.8%, 518 and 581.
Take `N=C1S/C(=C\c2ccc(-c3ccc4c(c3)C(=O)NC4=O)o2)C(=O)N1c1ccc(Br)cc1` [Bioymifi] (top concentration 46.0829 µM): the viability in the assay on SB.mhdgc-1 [1] came out at 1.27%; in the assay on SB.msgc-1 [2], 35.7%. Also, the “area under the dose-response curve” value in the assay with SB.mhdgc-1 [3] was 417; in the assay with SB.msgc-1 [4], 439.
With `Oc1ccc(C2CCN(c3ccnc4ccccc34)CC2)cc1O` (top concentration 46.0829 µM), the viability in the assay on SB.mhdgc-1 [1] was 43.7%; in the assay on SB.msgc-1 [2], 74.5%. Also, the “area under the dose-response curve” value in the assay on SB.mhdgc-1 [3] stood at 408; in the assay with SB.msgc-1 [4], 507.
On the same counts, the results for `C[C@@H](NCCCc1cccc(C(F)(F)F)c1)c1cccc2ccccc12` [Cinacalcet] (top concentration 46.0829 µM) are 115%, 108%, 546 and 587.
Consider `CC1=CC/2=C(C=C1C)N(C[C@@H](O)[C@@H](O)[C@@H](O)CO)C/3=N/C(=O)NC(=O)C3=N2` [Riboflavin] (top concentration 46.0829 µM), for which the viability with SB.mhdgc-1 [1] turned out to be 121%; in the assay with SB.msgc-1 [2], 104%. For the same compound, the “area under the dose-response curve” value in the assay with SB.mhdgc-1 [3] came to 570; with SB.msgc-1 [4], 525.
On the same counts, the results for `C[S+](=O)([O-])Nc1ccc([N+](=O)[O-])cc1Oc1ccccc1` [Nimesulide] (top concentration 46.0829 µM) are 87.3%, 65.7%, 460 and 558.
In the same order, the values of `[NH2][Pt]1([NH2])[O]CC(=O)[O]1` [Nedaplatin] (top concentration 46.0829 µM) are 124%, 123%, 541 and 528.
With `CCOc1ccc(Cc2cc([C@@H]3O[C@H](CO)[C@@H](O)[C@H](O)[C@H]3O)ccc2Cl)cc1` [Dapagliflozin] (top concentration 46.0829 µM), the values for the viability with SB.mhdgc-1 [1] and with SB.msgc-1 [2] were 40.5% and 49.2%, respectively. Further, the “area under the dose-response curve” value worked out at 500 in the assay on SB.mhdgc-1 [3] and 524 with SB.msgc-1 [4].
As for `CN(C)C(=N)NC(=N)N` [Metformin HCl] (top concentration 46.0829 µM), the viability with SB.mhdgc-1 [1] is 72.1%; in the assay on SB.msgc-1 [2] it was 79.9%. For the same compound, the “area under the dose-response curve” value in the assay on SB.mhdgc-1 [3] is 502; with SB.msgc-1 [4] it was 484.
On the same counts, the results for `OC(=O)CNC(=O)\C1=C(/O)C2=CC=CC=C2N(CC3=CC=CC=C3)C1=O` [IOX2] (top concentration 46.0829 µM) are 88.1%, 89.6%, 475 and 543.
`CNC(=O)[C@H](Cc1ccccc1)NC(=O)[C@H](CC(C)C)[C@H](CSc1cccs1)C(=O)NO` [Batimastat] (top concentration 46.0829 µM): the viability is 12.3% in the assay on SB.mhdgc-1 [1] and 66.1% with SB.msgc-1 [2]. Besides, the figures for the “area under the dose-response curve” value with SB.mhdgc-1 [3] and with SB.msgc-1 [4] were 424 and 438, respectively.
On the same counts, the results for `NC(=O)c1ccc2[nH]ccc2c1` [SD-169] (top concentration 46.0829 µM) are 96.9%, 117%, 479 and 556.
In the case of `CN(C)CCN(C)C(=O)c1ccc(NC(=O)Nc2ccc(-c3nc(N4CCOCC4)c4ccn(CC(F)(F)F)c4n3)cc2)cc1` (top concentration 46.0829 µM), the results for the viability in the assay with SB.mhdgc-1 [1] and in the assay on SB.msgc-1 [2] were 2.92% and 4.2%, respectively. For the same compound, the “area under the dose-response curve” value in the assay with SB.mhdgc-1 [3] was determined as 162; with SB.msgc-1 [4], 332.
On the same counts, the results for `Cn1cc(-c2ccc3nnc(C(F)(F)c4ccc5ncccc5c4)n3n2)cn1` (top concentration 46.0829 µM) are 114%, 96.1%, 589 and 508.
On the same counts, the results for `O=C(Nc1nnc(-c2ccco2)o1)c1cc(-c2ccccc2)nc2ccccc12` [STX-0119] (top concentration 46.0829 µM) are 50.2%, 44.1%, 428 and 474.
In the case of `CN1c2ccccc2C(=O)N2CCc3c([nH]c4ccccc34)C21` (stereo unspecified) [Evodiamine] (top concentration 46.0829 µM), the viability was determined as 58.1% with SB.mhdgc-1 [1] and 65% in the assay on SB.msgc-1 [2]. For the same compound, the “area under the dose-response curve” value is 546 with SB.mhdgc-1 [3] and 531 with SB.msgc-1 [4].
